We go through 2 compounds from US6172185A, “Antimicrobial cationic peptide derivatives of bactenecin” (priority 1998, dated 2001).

The test system of data set [1] is rat embryonic neurons, fetal rat astrocytes and human glioblastoma cells. The note with it: cited from earlier work.
A further data set has as its system E. coli DC2. Type of data set: cell-based, Escherichia coli. The note with it: E. coli DC2, 0.1M KCl. How it is done:
The minimal inhibitory concentration (MIC) of peptides was determined by a modified two-fold microtitre broth dilution method modified from that of Steinberg et al (Steinberg, Antimicrob. Agents Chemother. 41:1738, 1997). Using the classical method (Amsterdam, Antibiotics in Laboratory Medicine (Lorian, V., ed) pp. 72-78, 1991), higher concentrations of peptides tend to precipitate in the LB broth, thus the concentrations of peptides in the sequential wells are not accurate. Also the peptides stick to the most readily available (tissue-culture treated polystyrene) 96-well microtitre plates. Therefore the 2× series of dilutions was performed in Eppendoff tubes (polypropylene) before mixing with LB broth. Serial of two fold dilutions of peptides ranging from 640 μg/ml to 1.25 μg/ml were made in 0.2% BSA, 0.01% acetic acid buffer in the Eppendoff tubes. Ten μl of each concentration was added to each corresponding well of a 96-well microtiter plate (polypropylene cluster; Costar Corporation, Cambridge, Mass.). Bacteria were grown overnight and diluted 10-5 into fresh LB broth or Todd Hewitt broth for Streptococcus. LB medium contained 10 g/1l tryptone and 5 g/yeast extract, with no salt. Todd Hewitt contained 500 g/l beef heart infusion, 20 g/l bacto neopeptone, 2 g/l bacto dextrose, 2 g/l sodium chloride, 0.4 g/l disodium phosphate, 2.5 g/l sodium carbonate. One hundred […] containing about 10^4-10^5 CFU/ml of tested bacteria was added to each well. […]
It has been proposed that the antibacterial target of cationic peptides be at the cytoplasmic membrane. […] Once inside the cells, diS-C3-(5) becomes concentrated and self-quenches its own fluorescence. If peptides form channels or otherwise disrupt the membrane, the membrane potential will be dissipated, and the DiS-C3-(5) will be released into the medium causing the fluorescence to increase, as can be detected by fluorescent spectrometry. […] Therefore the MICs of bactenecin, reduced bactenecin and bac2S in the presence of 0.1M KCl were determined and shown to be 8-16 μg/ml (i.e. 4 to 8 fold higher than in low salt). […]

A further data set concerns E. coli UB1005. Description: Outer membrane permeabilization, NPN uptake assay. Type of data set: cell-based, Escherichia coli. The following applies: FIG. 3. How it is done:
Mid-log phase E. coli cells were collected and incubated with NPN in the presence of various concentrations of bactenecin (oxidized), bac2S, bactenecin (reduced). NPN was taken up into cells when the outer membrane was disrupted by the peptides. The uptake of NPN was measured by the increase of fluorescence. Polymyxin B: -.quadrature.-; Bactenecin: -+-; Bac2S: -o-; Bactenecin (Reduced): -.gradient.-
The ability of peptides to permeabilize the outer membrane was determined by the NPN assay of Loh et al. (Loh et al., Antimicrob. Agents Chemother. 19:777, 1984). Cytoplasmic membrane permeabilization was determined by using the membrane potential sensitive cyanine dye DiS-C3-(5) (Sims et al., Biochemistry 13:3315, 1974). […] The cell suspension was incubated with […] DiS-C3-(5) until DiS-C3-(5) uptake was maximal (as indicated by a stable reduction in fluorescence due to fluorescence quenching as the dye became concentrated in the cell by the membrane potential), and 100 mM KCl was added to equilibrate the cytoplasmic and external K+ concentration. […] The fluorescence reading was monitored by using a Perkin-Elmer model 650-10 S fluorescence spectrophotometer (Perkin-Elmer Corp. Norwalk, Conn.), with an excitation wavelength of 622 nm and an emission wavelength of 670 nm. […]

Where a SMILES comes first, the peptide text is derived from it.

For `CC[C@H](C)[C@@H]1NC(=O)[C@H](CCCNC(=N)N)NC(=O)[C@@H](NC(=O)[C@H](CC(C)C)NC(=O)[C@@H](N)CCCNC(=N)N)CSSC[C@@H](C(=O)N[C@@H](CCCNC(=N)N)C(=O)O)NC(=O)[C@H](C(C)C)NC(=O)[C@H](CCCNC(=N)N)NC(=O)[C@H]([C@@H](C)CC)NC(=O)[C@H](C(C)C)NC(=O)[C@H](C(C)C)NC1=O` [Bactenecin, RLCRIVVIRVCR] (HELM PEPTIDE1{R.L.C.R.I.V.V.I.R.V.C.R}$PEPTIDE1,PEPTIDE1,3:R3-11:R3$$$V2.0), the “Minimal Agglutinating Concentration, Oxidized Form” value in the data set on Human Red Blood Cells turned out to be 64 µg/mL. In data set [1], the cytotoxicity result is “strongly cytotoxic”. The “MIC in the presence of 0.1M KCl” value in the data set with E. coli DC2 was in the range of 8 to 16 mg/L.
For Polymyxin B, the “concentration permeabilizing the outer membrane to 50% of maximal increase in fluorescence (NPN)” value with E. coli UB1005 stood at 0.4 mg/mL.
